{
  "source": "paper PMC11077815",
  "about": "“Synthesis and antitumor activity of dolutegravir derivatives bearing 1,2,3-triazole moieties” (BMC Chemistry, 2024)",
  "key": {"PC-9": {"test_system": "PC-9", "experiment": "CCK8 cell viability assay, PC-9", "type": "cell-based, Human", "conditions": "for IC50: PC9, 48 h, CCK8, mean ± SE", "protocol": "(§1) At first, CCK8 assay was carried out to evaluate the anti-proliferative activity of dolutegravir-1,2,3-triazole derivatives against different cancer cell lines. The results of cell viability of three lung cancer cell lines A549, PC-9 and H460 in the presence of compounds 9 and 10 are summarized in Table 2. Cells were treated with different compounds at the concentration of 20 µM for 48 h. […] Human lung cancer cell lines A549, PC-9 and H460 were all obtained from ATCC. Cells were cultured in DMEM or RPMI 1640 medium containing 10% FBS and 1% penicillin/streptomycin at 37 °C with a 5% CO2-humidified atmosphere. CCK8 assay was used to measure cell viability. Cells with a density of 1 × 10^4 cells/well were seeded on the 96-well plates. After adhesion, cells were treated with different diluted compounds or vehicle control DMSO and continue cultured for 48 h. Then, CCK8 reagent was added for one hour incubation at 37 °C with 5% of CO2. Absorbance was measured using a microplate spectrophotometer (Thermo) at 450 nm. The ratio of cell viability of control was taken as 100%. […] Then IC50 of the compounds were investigated using the prism statistical software."}, "[1]": {"design": "method as in PMID 35111871", "conditions": "preclinical study, dose 27 times greater than the clinical dose; cited from earlier work"}, "H460": {"test_system": "H460", "experiment": "CCK8 cell viability assay, H460", "type": "cell-based, Human", "conditions": "for IC50: H460, 48 h, CCK8, mean ± SE", "protocol": "as §1"}, "A549": {"test_system": "A549", "experiment": "CCK8 cell viability assay, A549", "type": "cell-based, Human", "conditions": "for IC50: A549, 48 h, CCK8, mean ± SE", "protocol": "as §1"}, "[2]": {"test_system": "HRM (Human Renal Mesangial) cell line", "experiment": "CCK8 cell viability assay, HRM normal cells (toxicity control)", "type": "cell-based", "conditions": "HRM normal human cells, 48 h, CCK8, mean ± SE", "protocol": "Based on these preliminary results, compounds 9c, 9e, 9f, 9i, 9k, 9 L, 9p, 9q, 9t, 9u, 9v, 9w, 10c, 10e which were effective to most of the cell lines were chosen for the measurement of the half-maximal inhibitory concentration (IC50). […] HRM (Human Renal Mesangial) cell line was used as a control to study the toxicity of these compounds against normal human cells.\nCCK8 assay was used to measure cell viability. Cells with a density of 1 × 10^4 cells/well were seeded on the 96-well plates. After adhesion, cells were treated with different diluted compounds or vehicle control DMSO and continue cultured for 48 h. Then, CCK8 reagent was added for one hour incubation at 37 °C with 5% of CO2. Absorbance was measured using a microplate spectrophotometer (Thermo) at 450 nm. The ratio of cell viability of control was taken as 100%. […] Then IC50 of the compounds were investigated using the prism statistical software."}, "[3]": {"conditions": "PC9, 20 µM, 48 h, CCK8, control = 100%"}, "[4]": {"conditions": "H460, 20 µM, 48 h, CCK8, control = 100%"}, "[5]": {"conditions": "A549, 20 µM, 48 h, CCK8, control = 100%"}},
  "data": [
    {"smiles": "C[C@@H]1CCO[C@H]2Cn3cc(C(=O)NCc4ccc(F)cc4F)c(=O)c(O)c3C(=O)N12", "note": "[DTG, Dolutegravir]", "values": [
      {"measurement": "viability at 20 µM", "setting": "PC-9; Homo sapiens, PC-9, PC9, 20 µM, 48 h, CCK8, control = 100%", "value": 91.7, "unit": "%"},
      {"measurement": "fertility and teratogenic toxicity", "setting": "[1]", "value": "no obvious fertility toxicity or teratogenic toxicity"},
      {"measurement": "viability at 20 µM", "setting": "H460; Homo sapiens, NCI-H460, H460, 20 µM, 48 h, CCK8, control = 100%", "value": 27.2, "unit": "%"},
      {"measurement": "viability at 20 µM", "setting": "A549; Homo sapiens, A549, 20 µM, 48 h, CCK8, control = 100%", "value": 109, "unit": "%"}
    ]},
    {"smiles": "CCc1ccccc1-n1cc(-c2cccc(NC(=O)c3cn4c(c(OC)c3=O)C(=O)N3[C@H](C)CCO[C@H]3C4)c2)nn1", "note": "[Compound 9k]", "values": [
      {"measurement": "Cell viability (100%)", "setting": "PC-9; [3]", "value": 23.40, "unit": "%"},
      {"measurement": "IC50", "setting": "PC-9", "value": "9.87 ± 0.19", "unit": "µM"},
      {"measurement": "IC50", "setting": "[2]", "value": "> 50", "unit": "µM"},
      {"measurement": "Cell viability (100%)", "setting": "H460; [4]", "value": 18.72, "unit": "%"},
      {"measurement": "IC50", "setting": "H460", "value": "12.9 ± 0.8", "unit": "µM"},
      {"measurement": "Cell viability (100%)", "setting": "A549; [5]", "value": 83.48, "unit": "%"},
      {"measurement": "IC50", "setting": "A549", "value": "20.7 ± 0.23", "unit": "µM"}
    ]},
    {"smiles": "COc1cccc(-n2cc(-c3cccc(NC(=O)c4cn5c(c(OC)c4=O)C(=O)N4[C@H](C)CCO[C@H]4C5)c3)nn2)c1", "note": "[Compound 9 L]", "values": [
      {"measurement": "Cell viability (100%)", "setting": "PC-9; [3]", "value": 47.77, "unit": "%"},
      {"measurement": "IC50", "setting": "PC-9", "value": "9.2 ± 0.65", "unit": "µM"},
      {"measurement": "IC50", "setting": "[2]", "value": "43.3 ± 3.27", "unit": "µM"},
      {"measurement": "Cell viability (100%)", "setting": "H460; [4]", "value": 20.32, "unit": "%"},
      {"measurement": "IC50", "setting": "H460", "value": "25.5 ± 0.43", "unit": "µM"},
      {"measurement": "Cell viability (100%)", "setting": "A549; [5]", "value": 73.36, "unit": "%"},
      {"measurement": "IC50", "setting": "A549", "value": "44.3 ± 1.21", "unit": "µM"}
    ]},
    {"smiles": "COc1c2n(cc(C(=O)Nc3cccc(-c4cn(-c5ccccc5OC(F)(F)F)nn4)c3)c1=O)C[C@@H]1OCC[C@@H](C)N1C2=O", "note": "[Compound 9i]", "values": [
      {"measurement": "Cell viability (100%)", "setting": "PC-9; [3]", "value": 18.95, "unit": "%"},
      {"measurement": "IC50", "setting": "PC-9", "value": "4.53 ± 0.31", "unit": "µM"},
      {"measurement": "IC50", "setting": "[2]", "value": "> 50", "unit": "µM"},
      {"measurement": "Cell viability (100%)", "setting": "H460; [4]", "value": 8.52, "unit": "%"},
      {"measurement": "IC50", "setting": "H460", "value": "8.24 ± 2.06", "unit": "µM"},
      {"measurement": "Cell viability (100%)", "setting": "A549; [5]", "value": 17.41, "unit": "%"},
      {"measurement": "IC50", "setting": "A549", "value": "11.1 ± 1.07", "unit": "µM"}
    ]}
  ]
}
